From PubChem BioAssay (NCI)
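In this assay, cells in 96-well plates receive the compound at five concentrations for 48 hours. Endpoints are linearly interpolated between the surrounding concentrations. GI50 is the concentration that inhibits growth by half. TGI: total growth inhibition.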

Key:
Experiment in all cases: NCI tumour cell line growth inhibition, 48 h
RXF 393 renal = test system: RXF 393 renal
SF-268 CNS = test system: SF-268 CNS
SK-OV-3 ovarian = test system: SK-OV-3 ovarian
KM12 colon = test system: KM12 colon
U251 CNS = test system: U251 CNS
SK-MEL-5 melanoma = test system: SK-MEL-5 melanoma
SR leukemia = test system: SR leukemia
HOP-92 NSCLC = test system: HOP-92 NSCLC
NCI/ADR-RES ovarian = test system: NCI/ADR-RES ovarian
MDA-MB-231 breast = test system: MDA-MB-231 breast

Row | SMILES | TGI (RXF 393 renal) [µM] | TGI (SF-268 CNS) [µM] | TGI (SK-OV-3 ovarian) [µM] | TGI (KM12 colon) [µM] | TGI (U251 CNS) [µM] | TGI (SK-MEL-5 melanoma) [µM] | TGI (SR leukemia) [µM] | TGI (HOP-92 NSCLC) [µM] | GI50 (RXF 393 renal) [µM] | GI50 (SF-268 CNS) [µM] | GI50 (SK-OV-3 ovarian) [µM] | GI50 (NCI/ADR-RES ovarian) [µM] | TGI (NCI/ADR-RES ovarian) [µM] | GI50 (KM12 colon) [µM] | GI50 (U251 CNS) [µM] | GI50 (SK-MEL-5 melanoma) [µM] | GI50 (HOP-92 NSCLC) [µM] | GI50 (MDA-MB-231 breast) [µM] | TGI (MDA-MB-231 breast) [µM] | GI50 (SR leukemia) [µM]
1 | Cc1ccc(C2=[N+]([O-])c3ccccc3C2=O)cc1 | 26.6 | > 75.1 | > 100 | 50.9 | 44.9 | 27.5 | > 100 | 39.2 |  |  |  |  |  |  |  |  |  |  |  | 
2 | COC(=O)C1Cc2c(n(C)c3ccccc23)C(c2ccccc2)N1 (configuration not stated) |  | > 100 | > 100 | > 100 | > 100 | 93 | > 100 | > 100 |  |  |  |  |  |  |  |  |  |  |  | 
3 | NC(=O)c1csc(C2O[C@@H](COP(=O)(O)OP(=O)(O)OC[C@H]3OC(n4cnc5c(N)ncnc54)[C@H](O)[C@@H]3O)[C@H](O)[C@@H]2O)n1 (some centres not stated) |  | > 100 | > 100 | > 100 | > 100 | > 100 |  | > 100 |  |  |  |  |  |  |  |  |  |  |  | 
4 | NCCCn1c2c(c3ccccc3c1=O)C(=O)c1cc3c(cc1-2)OCO3 | > 30.3 | 15 | 13 | 2.82 | 1.52 | 0.802 |  | 15.9 | 2.35 | 1.51 | 1.93 | 1.05 | 4.43 | 0.311 | 0.149 | 0.122 | 0.568 | 0.72 | 4.54 | 
5 | O=C(Nc1ccccc1)O/N=C1/CCCC/C1=C\c1ccccc1 | 32 | 32.8 | 35.6 |  | 30.2 | 25.6 | 43.6 | 46 |  |  |  |  |  |  |  |  |  |  |  | 
6 | COc1ccc(-c2nc3sccn3c2/C=C/C(=O)c2cc(OC)c(OC)c(OC)c2)cc1OC |  | 6.44 | 8.07 | 4.53 |  | 2.99 | 4.15 |  |  | 2.36 | 2.9 | 2.27 | 5.98 | 2.04 |  | 1.54 |  | 2.87 | 27.7 | 1.3
7 | O=[N+]([O-])c1ccc2c(c1)OCCOCCOc1ccc([N+](=O)[O-])cc1OCCOCCO2 | > 100 | > 100 | > 100 | > 100 | > 100 | > 100 | > 100 |  |  |  |  |  |  |  |  |  |  |  |  | 
8 | N#CC12CCC(O)C(CC1)C2=O (configuration not stated) | > 100 | > 100 | > 100 | > 100 | > 100 | > 100 | 77.3 |  |  |  |  |  |  |  |  |  |  |  |  | 
9 | CC(C)(C)[Si](C)(C)OC1[C@@H](O[Si](C)(C)C(C)(C)C)[C@@H](CNC(=O)NC(=O)NC(=O)CI)O[C@H]1n1cnc2c(NC(=O)Nc3ccccc3)ncnc21 (some centres not stated) | 3.11 | 7.04 | 27.9 | 3.78 | 1.88 | 16.3 | 0.159 |  | 0.713 | 1.5 | 10.4 | 0.909 | 3.41 | 0.68 | 0.443 | 8.73 |  | 0.251 | 0.995 | 0.0447
10 | CS(=O)(=O)c1ccc(Oc2nccc(-c3c(-c4ccc(F)cc4)ncn3C3CCNCC3)n2)cc1 | > 25 | > 25 | > 25 | > 25 | > 25 | > 25 |  |  | > 25 | > 25 | > 25 | > 25 | > 25 | > 25 | > 25 | > 25 |  | > 25 | > 25 | 
11 | CC(C)(C)c1ccc(Oc2ccc(C#N)c(C#N)c2)c(C(C)(C)C)c1 | > 95.7 | > 100 | > 100 | > 100 | > 100 | > 100 | 40.3 | > 100 |  |  |  |  |  |  |  |  |  |  |  | 
12 | O=C1C(c2ccc(Cl)cc2)=[N+]([O-])c2ccccc21 | 23 | 28.8 | > 100 | 29.7 | 31.5 | 26.6 | > 100 |  |  |  |  |  |  |  |  |  |  |  |  | 
13 | O=C1C2c3[nH]c4ccccc4c3C3CCSCC3C2C(=O)N1c1ccccc1 (configuration not stated) | > 100 | > 100 | > 100 | > 100 | > 100 | > 100 |  | > 100 |  |  |  |  |  |  |  |  |  |  |  | 
14 | COc1c2c(c(OC)c3c(=O)cc(C/C(=N/NC(=O)C[n+]4ccccc4)C(=O)Nc4cc(C)ccc4C)oc13)OCO2 | > 100 | > 100 | > 100 | > 100 | > 100 | > 100 |  | > 100 |  |  |  |  |  |  |  |  |  |  |  | 
15 | N.N.NCCCCN.O=C([O-])CC(=O)[O-].O=C([O-])CC(=O)[O-].[Pt+4].[Pt+4] | > 100 | > 100 | > 100 | > 100 | > 100 | > 100 | > 100 | > 100 | > 100 | > 100 | > 100 |  |  | > 100 | 48.5 | > 100 | > 100 |  |  | 30.4
16 | COc1cc2c3c(n(CCCO)c(=O)c2cc1OC)-c1cc2c(cc1C3=O)OCO2 | > 94.6 | > 100 | > 100 | > 100 | 27.8 | > 52.9 |  | 11.4 | 27.1 | 9.04 | 55.3 | 3.95 | > 53.4 | 27.7 | 2.63 | 11.3 | 0.226 | 23.4 | > 76.6 | 
17 | Cc1ccc(C)c(NC(=O)CC2C(=O)Nc3ccccc3S2(=O)=O)c1 (configuration not stated) | 49.6 | > 100 |  |  | > 100 | > 100 | > 100 | > 100 |  |  |  |  |  |  |  |  |  |  |  | 
18 | O=C(Nc1cccc(C2=NCCN2)c1)c1ccc(OCCCOc2ccc(C(=O)Nc3cccc(C4=NCCN4)c3)cc2)cc1 | > 100 |  | 5.41 |  |  |  | > 100 | 7 | 5.78 |  | 2.39 | 46.2 | > 100 |  |  |  | 1.25 |  |  | 1.96
19 | COC1CCC2C(=O)CCCC2O1 (configuration not stated) | > 100 | > 100 | > 100 | > 100 | > 100 | > 100 | > 100 | > 100 |  |  |  |  |  |  |  |  |  |  |  | 
20 | COCC1N=C(c2ccc(OC)c(OCc3ccccc3)c2OC)O[C@H]1c1ccccc1 (some centres not stated) | 97.3 | > 100 | 96.1 | 96.2 | 60.6 | 25.7 |  | 42.4 |  |  |  |  |  |  |  |  |  |  |  | 
